Patent US8765977B2, “Hydroxylated contrast enhancement agents and imaging method” (General Electric Company, priority 2010, dated 2014)

Experiment: Ascorbic acid oxidation assay
Format: physicochemical
Conditions: 20 μM chelate (30 mol %), 67 μM ascorbic acid in PBS, 45 minutes, FIG. 1
Protocol: The UV-Vis spectrum of an ascorbic acid solution (67 μM, 12 μg·mL-1) in phosphate buffered saline (PBS) (3 mL) was recorded. The absorbance intensity at λmax=265 nm was observed. An aliquot (30 μL) of iron chelate of ethylenediaminetetraacetic acid (FeEDTA) in PBS (2 mM, 0.7 mg·mL-1) was added to afford a catalytic quantity of FeEDTA (20 μM, 30 mol %) with respect to ascorbic acid. The absorbance intensity (λmax=265 nm) was recorded at intervals of 1 minute for a period of 45 minutes and the data normalized to the t0 absorbance. The experiment was then repeated identically using iron chelate complex FeHBEDP(OH)3 (20 μM, 30 mol %).

consumption of ascorbic acid: consumes ascorbic acid completely
SMILES: O=C([O-])CN(CCN(CC(=O)[O-])CC(=O)[O-])CC(=O)[O-].[Fe+3] [FeEDTA, iron chelate of ethylenediaminetetraacetic acid]
